Data as given in ChEMBL document CHEMBL1201862, “PubChem BioAssay data set” (2004).
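Method: 48-hour compound exposure of cells in 96-well plates, five concentrations, linear interpolation of endpoints. At the GI50, growth is halved.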 The source made the active and inactive calls. No stated cut-off is given here; in the data, active = GI50 up to about 1.1 µM and inactive = higher.

Columns and labels:
Assay in all cases: NCI-60 cell line screen, 48 h
MOLT-4 = test system: MOLT-4
KM12 = test system: KM12
M14 = test system: M14
SNB-19 = test system: SNB-19
Malme-3M = test system: Malme-3M
A549 = test system: A549
PC-3 = test system: PC-3
CAKI-1 = test system: CAKI-1
HCT-116 = test system: HCT-116
SF-268 = test system: SF-268
SW-620 = test system: SW-620
NCI-H460 = test system: NCI-H460
SK-MEL-28 = test system: SK-MEL-28
SF-539 = test system: SF-539
SNB-75 = test system: SNB-75
RPMI-8226 = test system: RPMI-8226
EKVX = test system: EKVX
UACC-62 = test system: UACC-62
UO-31 = test system: UO-31

Measured: GI50

Cc1cc(C)nc(NC(=O)COc2ccc(Cl)cc2)c1
inactive: MOLT-4 56.6 µM | KM12 > 100 µM | M14 > 100 µM | SNB-19 > 100 µM | Malme-3M > 100 µM | A549 > 100 µM | PC-3 > 100 µM | CAKI-1 > 100 µM | HCT-116 > 100 µM | SF-268 > 100 µM | SW-620 > 100 µM | NCI-H460 > 100 µM | SK-MEL-28 > 100 µM | SF-539 > 100 µM | SNB-75 > 100 µM | RPMI-8226 74.5 µM | EKVX > 100 µM | UACC-62 > 100 µM

COC(=O)CNC(=O)/C=C/[C@H](O[Si](C)(C)C(C)(C)C)[C@H](/C=C/C(=O)NCC(=O)OC)O[Si](C)(C)C(C)(C)C
inactive: UO-31 > 25 µM | MOLT-4 > 25 µM | KM12 > 25 µM | SNB-19 > 25 µM | Malme-3M > 25 µM | A549 > 25 µM | PC-3 > 25 µM | CAKI-1 > 25 µM | HCT-116 > 25 µM | SF-268 > 25 µM | SW-620 > 25 µM | NCI-H460 > 25 µM | SK-MEL-28 > 25 µM | SF-539 > 25 µM | SNB-75 > 25 µM | RPMI-8226 > 25 µM | EKVX > 25 µM | UACC-62 > 25 µM

O=c1[nH]c2ccc(C(F)(F)F)cc2nc1C(F)(F)F
inactive: UO-31 20.7 µM | MOLT-4 23.4 µM | KM12 22.8 µM | M14 31.9 µM | SNB-19 28 µM | Malme-3M 21.2 µM | A549 27.9 µM | PC-3 23.3 µM | CAKI-1 30.3 µM | HCT-116 20.9 µM | SF-268 30.8 µM | NCI-H460 33.9 µM | SK-MEL-28 28.8 µM | SF-539 21.3 µM | SNB-75 12.1 µM | RPMI-8226 30.6 µM | EKVX 29.2 µM | UACC-62 27.9 µM

CCC1=C(c2ccc(OC)cc2)CC[C@@]2(CCNC2=O)[C@@H]1C
inactive: UO-31 > 96.2 µM | MOLT-4 24.9 µM | KM12 > 94.2 µM | M14 > 100 µM | SNB-19 > 100 µM | Malme-3M 58.7 µM | A549 > 100 µM | PC-3 > 78.2 µM | CAKI-1 > 100 µM | HCT-116 76.2 µM | SF-268 > 100 µM | SW-620 > 100 µM | NCI-H460 > 100 µM | SK-MEL-28 > 100 µM | SF-539 > 100 µM | SNB-75 > 73.8 µM | RPMI-8226 > 46.1 µM | EKVX 59.4 µM | UACC-62 > 100 µM

C=CCOC(=O)C[C@H](NC(=O)[C@H](Cc1ccc(O)cc1)NCC(F)(F)F)C(=O)OCC=C
inactive: UO-31 > 100 µM | MOLT-4 25.1 µM | KM12 > 100 µM | M14 41.7 µM | SNB-19 > 100 µM | Malme-3M 22.6 µM | A549 > 100 µM | PC-3 77.8 µM | CAKI-1 > 100 µM | HCT-116 > 100 µM | SF-268 37.7 µM | SW-620 54.3 µM | NCI-H460 59.6 µM | SK-MEL-28 20.6 µM | SF-539 57.8 µM | SNB-75 31.6 µM | RPMI-8226 36.1 µM | EKVX 25.5 µM | UACC-62 40.7 µM

O=C(/C=C/c1ccccc1)OCC1=C[C@@H](O)[C@@H]2C=CO[C@@H](OC3OC(CO)C(O)C(O)C3O)[C@H]12 (stereo not given in full)
inactive: UO-31 > 100 µM | MOLT-4 > 100 µM | KM12 > 100 µM | M14 > 100 µM | SNB-19 95.9 µM | Malme-3M > 100 µM | A549 > 100 µM | PC-3 > 100 µM | CAKI-1 > 100 µM | HCT-116 > 100 µM | SF-268 > 100 µM | SW-620 > 100 µM | SK-MEL-28 > 100 µM | SF-539 > 100 µM | SNB-75 > 100 µM | RPMI-8226 > 100 µM | EKVX > 100 µM | UACC-62 > 100 µM
